Marks after values point to notes of the source that are not given here.
Assays:
[1] = system: carrageenan swelling of the rat paw; test: Anti-inflammatory activity, rat paw carrageenan method; format: in vivo
Procedure: Anti-inflammatory activity of DPA using the rat paw carrageenan method. This is a generally recognized method for evaluating anti-inflammatory drugs of the aspirin/NSAID (as used throughout this application NSAID refers to a non-steroidal, anti-inflammatory drug) type or those that counteract the action of the prostaglandins. Such drugs are useful for treating conditions such as arthritis in animals and humans. In this method, the paw of the rat is injected with carrageenan, which causes swelling of the paw due to the accumulation of fluid. […] In this study, DPA was administered by various routes and times into groups of rats (6 male albino rats per group-weight approximately 250 grams) before carrageenan and the degree of swelling was measured by the extent of displacement of water when the paw was immersed into a calibrated cylinder. A placebo consisting of saline solution was similarly administered.

[2] = system: PBQ writhing in mice; test: Anti-inflammatory activity, mouse phenylbenzylquinone (PBQ) writhing test; format: in vivo; details: for Number of writhes: counted over 20 minutes
Procedure: Anti-inflammatory activity of DPA using the mouse phenylbenzylquinone (PBQ) writhing test. This is a generally recognized method for evaluating anti-inflammatory drugs of the aspirin/NSAID type, i.e. those drugs which counteract the action of the prostaglandins. Such drugs are useful for treating conditions such as arthritis in animals and humans.
In this method, a solution of PBQ was injected subcutaneously into groups of 6 mice (male, albino, 22-25 grams). Within a few minutes, the mice began to writhe. DPA was injected intra-peritoneally or given by mouth at different times prior to PBQ. The number of writhes was counted over a period of 20 minutes. The effects of DPA were compared to that of similarly administered saline control.

[3] = system: mouse hot plate jumping threshold; test: Analgesic activity, mouse hot plate test; format: in vivo
Source text: Analgesic activity of DPA using the mouse hot plate test. The mouse hot plate is a generally recognized method for evaluating analgesic drugs that act on the endorphin system, e.g., morphine-like drugs and drugs that increase endorphin levels, e.g., DPA. Such drugs are useful for treating many kinds of painful conditions, including arthritis, headache, low back pain, musculoskeletal pain, pre-menstrual pain, and dental pain.
In this method, groups of mice (6 albino mice per group, weighing between 22 and 25 grams) are individually placed on a hot plate at 55° C. and a beaker is placed over the mouse. The time for the mouse to jump in an attempt to escape the painful condition is recorded. An analgesic substance is one which increases the threshold to pain, thereby permitting the mouse to remain on the hot plate for longer times. The effect of the drug is compared to that of a saline control. DPA at different doses was injected intra-peritoneally into the mice 2 hours before they were placed on the hot plate, and jumping time determined over the next 1-2 hours. The effect of DPA was compared with that of an injection of saline.
For studies involving combinations of drugs, the combination was injected at the same time. In the studies shown below, the second drug consisted of indomethacin, diclofenac, or acetaminophen. Each of these drugs is used for treating arthritis, as well as many other painful conditions.

[4] = system: pain in patients with arthritis and other skeletal diseases; test: Efficacy of DPA in humans with arthritis and other musculoskeletal diseases (open-label, cross-over); format: in vivo, human
Procedure: 4. Efficacy of DPA treatment for arthritis and a variety of other musculoskeletal diseases; human studies. Forty-three patients were studied in an open-label, cross-over procedure. Of these, 32 had arthritis. All of the patients had previously been given many treatments, without success, in relieving their pain. Pre-DPA administration treatments used included such potent drugs as Percodan, Darvocet, Valium, and aspirin, as well as acupuncture. Prior to giving DPA 800 mg/day by mouth, all treatments were stopped. Patients were given a card on which they scored their degree of pain, on a scale of 1-4; 1 indicated no relief, 2 indicated approximately 25% relief, 3 indicated approximately 50% relief, and 4 indicated complete relief.

[5] = system: PBQ writhing in mice; test: Anti-inflammatory activity, mouse phenylbenzylquinone (PBQ) writhing test; format: in vivo; details: for Number of writhes: counted over 20 minutes; remark: listed apart in the source
[6] = DPA 800 mg/day by mouth, 43 patients, 32 with arthritis, self-scored pain relief
[7] = NSAID alone, 20 mg/kg, hot plate at 55° C.

N[C@H](Cc1ccccc1)C(=O)O [DPA, D-phenylalanine]
% Inhibition of swelling ([1]; oral administration, 150 minutes before carrageenan, 125 mg/kg): 7%
% Inhibition of swelling ([1]; oral administration, 150 minutes before carrageenan, 250 mg/kg): 10%
% Inhibition of swelling ([1]; oral administration, 150 minutes before carrageenan, 500 mg/kg): 24%
% Inhibition of swelling ([1]; oral administration, 150 minutes before carrageenan, 1000 mg/kg): 62%
% Inhibition of swelling ([1]; oral administration, 150 minutes before carrageenan, 1500 mg/kg): 79%
% Inhibition of swelling ([1]; subcutaneous injection, 120 minutes before carrageenan, 8 mg/kg): 15%
% Inhibition of swelling ([1]; subcutaneous injection, 120 minutes before carrageenan, 125 mg/kg): 37%
% Inhibition of swelling ([1]; subcutaneous injection, 120 minutes before carrageenan, 500 mg/kg): 35%
% Inhibition of swelling ([1]; subcutaneous injection, 6 hours before carrageenan, dose 62.5): 35%
% Inhibition of swelling ([1]; subcutaneous injection, 6 hours before carrageenan, dose 250): 36%
% Inhibition of swelling ([1]; subcutaneous injection, 6 hours before carrageenan, dose 500): 75%
% inhibition of writhing ([2]; intra-peritoneal injection, 2 hours before PBQ, 250 mg/kg): 73%
Number of writhes ([2]; intra-peritoneal injection, 2 hours before PBQ, 250 mg/kg, saline 125): 34
% inhibition of writhing ([2]; intra-peritoneal injection, 2 hours before PBQ, 500 mg/kg): 90%
Number of writhes ([2]; intra-peritoneal injection, 2 hours before PBQ, 500 mg/kg, saline 125): 13
% inhibition of writhing ([2]; oral administration, 2.5 hours before PBQ, 250 mg/kg): 10%
Number of writhes ([2]; oral administration, 2.5 hours before PBQ, 250 mg/kg, saline 148): 133
Number of writhes ([2]; oral administration, 2.5 hours before PBQ, 500 mg/kg, saline 148): 110
% inhibition of writhing ([2]; oral administration, 2.5 hours before PBQ, 1000 mg/kg): 62%
Number of writhes ([2]; oral administration, 2.5 hours before PBQ, 1000 mg/kg, saline 148): 56
Increase in the threshold to jumping, compared to control ([3]; DPA 250 mg/kg intra-peritoneally, 2 hours before hot plate at 55° C.): 3-fold
increase of the threshold time to jump, as compared to saline control ([3]; mouse hot plate, as shown in Table 3): three-fold
Complete relief of pain (number of patients) [4, 6]: 2
Excellent relief of pain (number of patients) [4, 6]: 7
Moderate relief of pain (number of patients) [4, 6]: 19
No relief of pain (number of patients) ([4]; DPA 800 mg/day by mouth, 43 patients, most of these took DPA for only 1-2 weeks): 15*
effect on pain in humans ([4]; DPA alone, 800 mg/day): successfully decrease
% inhibition of writhing ([5]; oral administration, 2.5 hours before PBQ, 500 mg/kg): 24%
% inhibition of writhing ([5]; subcutaneous injection, 6 hours before PBQ, 62.5 mg/kg): 35%
Number of writhes ([5]; subcutaneous injection, 6 hours before PBQ, 62.5 mg/kg, saline 166): 108
% inhibition of writhing ([5]; subcutaneous injection, 6 hours before PBQ, 250 mg/kg): 36%
Number of writhes ([5]; subcutaneous injection, 6 hours before PBQ, 250 mg/kg, saline 166): 106
% inhibition of writhing ([5]; subcutaneous injection, 6 hours before PBQ, 500 mg/kg): 75%
Number of writhes ([5]; subcutaneous injection, 6 hours before PBQ, 500 mg/kg, saline 110): 28

O=C(O)Cc1ccccc1Nc1c(Cl)cccc1Cl [Diclofenac, diclofenac, reference compound]
Increase in the threshold to jumping, compared to control [3, 7]: 0

COc1ccc2c(c1)c(CC(=O)O)c(C)n2C(=O)c1ccc(Cl)cc1 [Indomethacin, indomethacin, reference compound]
Increase in the threshold to jumping, compared to control [3, 7]: 0

— patent US20060252727A1, “Medicinal compositions and therapeutic methods for treating arthritis and other painful conditions” (priority 2001, published 2006)
